# Results as given in patent publication US9452998B2, “Protein kinase C inhibitors and methods of their use” (NOVARTIS AG, priority 2014, dated 2016).
# Key:
# [1] = Mouse C57BL/6; Dose IV: 1 mg/kg PO: 10 mg/kg
# [2] = Rat Wistar-Han; Dose 0.3 mg/kg PO: 3 mg/kg
# in vivo [3] = conditions: C57BL/6, mouse
# in vivo [4] = conditions: Wistar-Han, rat
smiles,measurement,setting,value
"Nc1ncc(-c2ncccc2OC(F)(F)F)nc1C(=O)Nc1ncccc1N1CCC(N)CC1 [Example 2, 3-amino-N-(3-(4-aminopiperidin-1-yl)pyridin-2-yl)-6-(3-(trifluoromethoxy)pyridin-2-yl)pyrazine-2-carboxamide]",Oral BA (% F),[1],6 % F
same,Vss,[2],1.1 L/kg
same,half-life,in vivo [3],30 min
same,Vd,"in vivo [3]; intravenous, 1 mg/kg",0.4 L/kg
same,clearance,"in vivo [3]; intravenous, 1 mg/kg",14 mL/min/kg
same,Cmax,"in vivo [3]; po, 10 mg/kg",946 nM
same,Tmax,"in vivo [3]; po, 10 mg/kg",18 min
same,AUC,"in vivo [4]; iv, 0.3 mg/kg",0.38 µM·h
same,AUC,"in vivo [4]; po, 3 mg/kg",2.77 µM·h
same,Cmax,"in vivo [4]; po, 3 mg/kg",756 nM
same,Tmax,"in vivo [4]; po, 3 mg/kg",1.5 h
